Test results published in the NIST ThermoML archive (doi:10.1021/je1002626).

Key:
[1] = 101.33 kPa, Liquid, Pycnometric method
[2] = wn = mass fraction of the nth substance listed; conditions: for surface tension liquid-gas: Ring tensiometer; for mass density: 101.3 kPa, Liquid, Pycnometric method

CNCCO [2-(methylamino)ethanol]
[1]
Conditions	mass density [kg/m3]
298.15 K	936.18
303.15 K	932.26
313.15 K	924.42
323.15 K	916.48

CNCCO [2-(methylamino)ethanol] + O
[2]
Conditions	mass density [kg/m3]	surface tension liquid-gas [mN/m]
298 K, w1 = 0.1	–	60.85
298 K, w1 = 0.2	–	56.11
298 K, w1 = 0.3	–	52.51
298 K, w1 = 0.4	–	49.16
298.15 K, w1 = 0.178	996.31	–
298.15 K, w1 = 1	936.18	–
303 K, w1 = 0.1	–	60.02
303 K, w1 = 0.2	–	55.28
303 K, w1 = 0.3	–	52.33
303 K, w1 = 0.4	–	48.15
303.15 K, w1 = 0.178	994.38	–
303.15 K, w1 = 1	932.26	–
308 K, w1 = 0.1	–	59.5
308 K, w1 = 0.2	–	54.5
308 K, w1 = 0.3	–	51.46
308 K, w1 = 0.4	–	47.2
308.15 K, w1 = 0.178	993.12	–
313 K, w1 = 0.1	–	58.65
313 K, w1 = 0.2	–	53.42
313 K, w1 = 0.3	–	50.18
313 K, w1 = 0.4	–	46.67
313.15 K, w1 = 0.178	990.09	–
313.15 K, w1 = 1	924.42	–
318 K, w1 = 0.1	–	57.66
318 K, w1 = 0.2	–	52.78
318 K, w1 = 0.3	–	49.42
318 K, w1 = 0.4	–	45.72
318.15 K, w1 = 0.178	988.61	–
323 K, w1 = 0.1	–	56.89
323 K, w1 = 0.2	–	51.79
323 K, w1 = 0.3	–	48.9
323 K, w1 = 0.4	–	44.92
323.15 K, w1 = 0.178	984.89	–
323.15 K, w1 = 1	916.48	–
